Measured values as given in US20090306625A1, “TREATMENT SYSTEMS AND METHODS FOR RENAL-RELATED DISEASES” (AngioDynamics, Inc., priority 2007, published 2009).
Counter-ions that a name gives are not always drawn.

Legend:
[1] = tested on: patients with moderate to severe underlying renal dysfunction; assay: Targeted renal therapy (intra-renal infusion) with fenoldopam mesylate in patients receiving a nephrotoxic radio-contrast agent; format: in vivo, human; details: TRT (intra-renal) delivery
Excerpt: TRT can be applied to patients with various agents in many clinical settings to mitigate acute kidney injury. For example, TRT can be applied with fenoldopam mesylate, a dopamine DI-like agonist vasodilator (CORLOPAM® brand of Fenoldopam Mesylate Injection). […] The increase in GFR can be seen in the setting of an insult to the kidneys in the form of a nephrotoxic radio-contrast agent.

septic patients = details: IV infusion 0.09 mcg/kg/min, average of one week or more, ICU; cited from earlier work

## Oc1ccc(C2CNCCc3c2cc(O)c(O)c3Cl)cc1 (stereo not drawn) [fenoldopam mesylate]
[1]
  effect on blood pressure: no significant effect
[1]; nephrotoxic radio-contrast insult
  increase in glomerular filtration rate (GFR) above baseline: approximately 25%
Septic patients
  outcome in preventing kidney failure: improved outcomes in preventing kidney failure
